Results taken from patent US9969726B2, “Metabotropic glutamate receptor negative allosteric modulators (NAMS) and uses thereof” (Sanford-Burnham Medical Research Institute, priority 2014, dated 2018).
Read-outs that look alike come from different tables or passages of the source.

Columns and labels:
[1] = target: rat mGlu2 receptor (Rattus norvegicus (Rat), UniProt P31421); test: mGlu2 in vitro GIRK thallium flux assay; format: cell-based; details: NAM, EC80 glutamate, HEK-293 GIRK cells
Procedure: (§1) All cell culture reagents were purchased from Invitrogen Corp. (Carlsbad, Calif.) unless otherwise noted. Compound activity at the group II (mGlu2 and mGlu3) mGlus was assessed using thallium flux through GIRK channels. Briefly, cells were plated into 384-well, black-walled, clear-bottomed poly-D-lysine-coated plates at a density of 15,000 cells/20 μL/well in DMEM containing 10% dialyzed FBS, 20 mM HEPES, and 100 units/mL penicillin/streptomycin (assay media). Plated cells were incubated overnight at 37° C. in the presence of 5% CO2. […] Cells were incubated for 1 h at room temperature, and the dye exchanged to assay buffer using an ELX405, leaving 20 μL/well. Test compounds were diluted to 2 times their final desired concentration in assay buffer (0.3% DMSO final concentration). […] Cell plates and compound plates were loaded onto a kinetic imaging plate reader (FDSS 6000 or 7000; Hamamatsu Corporation, Bridgewater, N.J.). Appropriate baseline readings were taken (10 images at 1 Hz; excitation, 470±20 nm; emission, 540±30 nm) and test compounds were added in a 20 μL volume and incubated for either 2.5 min or 60 min as indicated before the addition of 10 μL of thallium buffer with or without agonist. After the addition of agonist, data were collected for approximately an additional 2.5 min. Data were analyzed using Excel (Microsoft Corp, Redmond, Wash.). The slope of the fluorescence increase beginning 5 s after thallium/agonist addition and ending 15 s after thallium/agonist addition was calculated, corrected to vehicle and maximal agonist control slope values, and plotted in using either XLfit (ID Business Solutions Ltd) or Prism software (GraphPad Software, San Diego, Calif.) to generate concentration-response curves. Potencies were calculated from fits using a four-point parameter logistic equation. For concentration-response curve experiments, compounds were serially diluted 1:3 into 10 point concentration response curves and were transferred to daughter plates using an Echo acoustic plate reformatter (Labcyte, Sunnyvale, Calif.). Test compounds were applied and followed by EC80 concentrations of glutamate.

[2] = target: rat mGlu3 receptor (Rattus norvegicus (Rat), UniProt P31422); test: mGlu3 in vitro GIRK thallium flux assay; format: cell-based; details: NAM; 2.5 min compound incubation; EC80 glutamate; HEK-293 GIRK cells
Sequence of rat mGlu3 receptor (P31422 23-879): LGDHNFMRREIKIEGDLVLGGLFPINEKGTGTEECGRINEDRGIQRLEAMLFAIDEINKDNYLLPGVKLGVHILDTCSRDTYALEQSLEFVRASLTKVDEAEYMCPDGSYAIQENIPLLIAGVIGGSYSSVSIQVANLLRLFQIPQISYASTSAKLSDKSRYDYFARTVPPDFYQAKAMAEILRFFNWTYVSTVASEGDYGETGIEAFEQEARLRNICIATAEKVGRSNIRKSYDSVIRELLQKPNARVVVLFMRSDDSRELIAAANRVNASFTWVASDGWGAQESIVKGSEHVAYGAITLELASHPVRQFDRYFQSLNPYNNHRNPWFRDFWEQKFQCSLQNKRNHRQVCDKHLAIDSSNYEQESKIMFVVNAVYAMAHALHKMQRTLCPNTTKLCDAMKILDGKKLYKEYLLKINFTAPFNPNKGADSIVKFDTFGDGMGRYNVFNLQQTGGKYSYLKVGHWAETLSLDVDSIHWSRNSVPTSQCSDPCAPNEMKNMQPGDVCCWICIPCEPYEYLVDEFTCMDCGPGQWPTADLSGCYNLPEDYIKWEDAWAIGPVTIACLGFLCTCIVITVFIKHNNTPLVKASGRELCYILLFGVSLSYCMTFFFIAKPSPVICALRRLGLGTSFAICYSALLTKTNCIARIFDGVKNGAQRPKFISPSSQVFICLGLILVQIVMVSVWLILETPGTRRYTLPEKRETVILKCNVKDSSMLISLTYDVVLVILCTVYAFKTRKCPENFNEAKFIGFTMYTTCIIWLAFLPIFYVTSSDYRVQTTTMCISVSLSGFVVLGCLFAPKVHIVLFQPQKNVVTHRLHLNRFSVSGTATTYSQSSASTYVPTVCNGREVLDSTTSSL
Procedure: as §1

[3] = 2.5 min compound incubation, read-out: mGlu2 EC50 (μM) (2.5 min)
[4] = mGlu2 EC50 (μM) (60 min), 60 min compound incubation
[5] = read-out: mGlu2 EC50 (μM) (60 min), 60 min compound incubation

Sequence of rat mGlu2 receptor (P31421 19-872): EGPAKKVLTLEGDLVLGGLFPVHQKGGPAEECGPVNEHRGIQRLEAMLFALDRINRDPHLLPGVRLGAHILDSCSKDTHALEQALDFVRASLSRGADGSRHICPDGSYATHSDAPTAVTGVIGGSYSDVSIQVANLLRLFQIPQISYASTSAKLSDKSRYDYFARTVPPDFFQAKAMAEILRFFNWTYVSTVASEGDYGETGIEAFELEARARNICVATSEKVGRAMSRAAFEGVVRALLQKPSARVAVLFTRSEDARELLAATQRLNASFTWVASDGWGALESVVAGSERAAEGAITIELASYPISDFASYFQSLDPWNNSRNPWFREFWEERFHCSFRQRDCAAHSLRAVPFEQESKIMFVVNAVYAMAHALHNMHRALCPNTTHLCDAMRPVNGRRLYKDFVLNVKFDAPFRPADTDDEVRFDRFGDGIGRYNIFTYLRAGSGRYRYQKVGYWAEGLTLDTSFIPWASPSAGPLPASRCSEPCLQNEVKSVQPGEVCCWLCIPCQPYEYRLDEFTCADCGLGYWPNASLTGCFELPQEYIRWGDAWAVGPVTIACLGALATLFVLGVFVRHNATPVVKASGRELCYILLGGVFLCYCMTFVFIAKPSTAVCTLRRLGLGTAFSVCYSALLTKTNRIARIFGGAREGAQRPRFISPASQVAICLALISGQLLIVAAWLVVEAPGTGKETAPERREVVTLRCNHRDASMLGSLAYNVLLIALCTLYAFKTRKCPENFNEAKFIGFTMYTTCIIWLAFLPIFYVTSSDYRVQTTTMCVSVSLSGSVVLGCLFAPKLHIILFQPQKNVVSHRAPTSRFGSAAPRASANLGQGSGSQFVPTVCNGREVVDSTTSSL

Compound | EC50 [1, 3] | EC50 [1, 4] | EC50 [2] | EC50 [1, 5]
O=C(O)c1cc(-c2cccc(-c3csc(-c4ccoc4)n3)c2)ccc1F [Example 4, 4-Fluoro-3′-(2-(furan-3-yl)thiazol-4-yl)biphenyl-3-carboxylic Acid] | 2.26 µM | 2.5 µM | > 10 µM | 
O=C(O)c1cc(-c2cccc(-c3csc(-c4ccc(C(F)(F)F)nc4)n3)c2)ccc1F [Example 5, 4-Fluoro-3′-(2-(6-(trifluoromethyl)pyridin-3-yl)thiazol-4-yl)biphenyl-3-carboxylic Acid] | 1.35 µM | 0.85 µM | 3.11 µM | 
Cc1nc(-c2cccc(-c3ccc(F)c(C(=O)O)c3)c2)cs1 [Example 6, 4-Fluoro-3′-(2-methylthiazol-4-yl)biphenyl-3-carboxylic Acid] | > 10 µM | > 10 µM | > 10 µM | 
O=C(O)c1cc(-c2cccc(-c3csc(-c4ccco4)n3)c2)ccc1F [Example 7, 4-Fluoro-3′-(2-(furan-2-yl)thiazol-4-yl)biphenyl-3-carboxylic Acid] | 2.4 µM | > 10 µM | > 10 µM | 
O=C(O)c1cc(-c2cccc(-c3csc(-c4cc5ccccc5s4)n3)c2)ccc1F [Example 8, 3′-(2-(Benzo[b]thiophen-2-yl)thiazol-4-yl)-4-fluorobiphenyl-3-carboxylic Acid] | > 10 µM | 1.92 µM | > 10 µM | 
O=C(O)c1cc(-c2ccc(-c3csc(-c4ccccc4)n3)s2)ccc1F [Example 10, 2-Fluoro-5-(5-(2-phenylthiazol-4-yl)thiophen-2-yl)benzoic acid] | > 10 µM | > 10 µM | > 10 µM | 
O=C(O)c1ccc(F)c(-c2cccc(-c3csc(-c4ccccc4)n3)c2)c1 [Example 11, 6-Fluoro-3′-(2-phenylthiazol-4-yl)biphenyl-3-carboxylic Acid] | 1.59 µM | 3.4 µM | > 30 µM | 
COc1ccc(-c2cccc(-c3csc(-c4ccccc4)n3)c2)cc1C(=O)O [Example 12, 4-Methoxy-3′-(2-phenylthiazol-4-yl)-[1,1′-biphenyl]-3-carboxylic Acid] | 1.73 µM | 2.14 µM | 1.77 µM | 
O=C(O)c1cc(-c2cccc(-c3csc(-c4ccccc4)n3)c2)cc([N+](=O)[O-])c1 [Example 13, 5-Nitro-3′-(2-phenylthiazol-4-yl)biphenyl-3-carboxylic Acid] | > 10 µM | > 10 µM | > 10 µM | 
N#Cc1cccc(-c2cccc(-c3csc(-c4ccccc4)n3)c2)c1 [Example 14, 3′-(2-Phenylthiazol-4-yl)biphenyl-3-carbonitrile] | > 30 µM |  | > 30 µM | > 10 µM
O=C(O)c1cc(-c2cccc(-c3csc(-c4cccs4)n3)c2)ccc1F [Example 15, 4-Fluoro-3′-(2-(thiophen-2-yl)thiazol-4-yl)biphenyl-3-carboxylic Acid] | 1.5 µM | 0.93 µM | > 10 µM | 
O=C(O)c1cc(-c2cccc(-c3csc(-c4cc5ccccc5o4)n3)c2)ccc1F [Example 16, 3′-(2-(Benzofuran-2-yl)thiazol-4-yl)-4-fluorobiphenyl-3-carboxylic Acid] | 2.57 µM | 1.93 µM | 3.32 µM | 
O=C(O)c1cc(-c2ccc(-c3csc(-c4ccccc4)n3)cc2)ccc1F [Example 17, 4-Fluoro-4′-(2-phenylthiazol-4-yl)biphenyl-3-carboxylic Acid] | > 30 µM |  | > 30 µM | > 30 µM
O=C(O)c1cc(-c2ccccc2-c2csc(-c3ccccc3)n2)ccc1F [Example 18, 4-Fluoro-2′-(2-phenylthiazol-4-yl)biphenyl-3-carboxylic Acid] | > 10 µM |  | > 10 µM | > 30 µM
O=Cc1cc(-c2cccc(-c3csc(-c4ccccc4)n3)c2)ccc1F [Example 19, 4-Fluoro-3′-(2-phenylthiazol-4-yl)biphenyl-3-carbaldehyde] | 3.67 µM | 1.55 µM | > 10 µM | 
